{
  "source": "patent US11091535B2",
  "about": "“Thrombin inhibitors for treatment of stroke and related coagulative disorders” (THE UNIVERSITY OF SYDNEY, priority 2016, dated 2021)",
  "test_system": "pooled citrated plasma",
  "test": "in vitro activated partial thromboplastin time (APTT) assay",
  "set-up": "species or system mice",
  "details": "hirudin at concentrations above 2 μg/mL",
  "procedure": "The anticoagulant activity of the thrombin inhibitors disclosed herein is determined by measuring their ability to prolong clotting of human plasma in vitro using a clinical TT assay. Briefly, human plasma from healthy donors (800 μL) is mixed with a concentration range of inhibitors, clotting initiated by addition of thrombin, and clotting time measured using a coagulometer. Compounds which prolong clotting time to 30 sec at a concentration of 50 nM may be further investigated in vitro/ex vivo for APTT. In brief, pooled citrated plasma from C57BL6/J mice is pre-incubated with various concentrations (0-12 μg/mL) of inhibitors. APTT of each plasma sample is quantified following addition of a coagulation activator and CaCl2). In an ex vivo assay, mice are injected i.v. with inhibitors (fixed concentration determined from in vitro APTT) and whole blood collected into sodium citrate (˜130 μL) 0, 5, 30 and 60 min post-administration. APTT is quantified on isolated plasma using a RANDOX APTT kit, with fibrin generation monitored to measure clotting time.\nWe investigated the ability of the inhibitor of Example 2 (A^Aa) to prolong clotting time in an in vitro activated partial thromboplastin time (APTT) assay (FIG. 1A).",
  "data": [
    {"substance": "hirudin", "values": [
      {"measurement": "increase in clotting time (APTT)", "value": 8, "unit": "fold"}
    ]}
  ]
}
